biological target: T1, human CRTH2 (Homo sapiens, UniProt Q9Y5Y4); experiment: [35S]GTPγS binding assay (SPA) on membranes from CHO-K1 cells stably expressing human CRTH2, stimulated with 60 nM DHK-PGD2; assay type: biochemical; conditions: membranes of CHO-K1 cells expressing human CRTH2; 60 nM DHK-PGD2; Table 1; read-out: CRTH2 hGTPγS IC50
T1 construct: expressed in transfected cells
T1 sequence (Q9Y5Y4 1-395): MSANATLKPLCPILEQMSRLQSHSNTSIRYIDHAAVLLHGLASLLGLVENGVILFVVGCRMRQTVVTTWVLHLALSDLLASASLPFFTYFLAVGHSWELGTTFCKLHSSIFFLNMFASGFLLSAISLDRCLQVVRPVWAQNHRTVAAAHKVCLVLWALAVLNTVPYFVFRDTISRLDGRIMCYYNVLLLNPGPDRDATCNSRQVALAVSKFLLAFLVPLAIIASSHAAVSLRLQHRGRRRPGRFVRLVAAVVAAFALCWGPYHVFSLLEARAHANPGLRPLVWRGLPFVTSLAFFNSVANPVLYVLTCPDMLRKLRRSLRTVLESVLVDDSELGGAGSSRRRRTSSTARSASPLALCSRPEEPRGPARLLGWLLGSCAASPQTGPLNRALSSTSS
How it was run: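 Read-out is scintillation proximity: bound [35S]GTPγS (500 pM, with 10 μM GDP) was counted 4 h after centrifuging a 2 h ambient-temperature incubation. Reactions held 4 μg human CRTH2 CHO-K1 membrane protein, 60 nM DHK-PGD2 agonist and test compounds at increasing concentrations. Buffer: 20 mM HEPES pH 7.4, 10 mM MgCl2, 300 mM NaCl, 0.2% BSA, 1% DMSO.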

Compared with `CN(Cc1ccc(OCC(=O)O)c(-c2ccc3nonc3c2)c1)S(=O)(=O)c1ccc(F)cc1` [Example 187, 2-(5-benzo[c][1,2,5]oxadiazolyl)-4-((4-fluoro-N-methylphenylsulfonamido)methyl)phenoxyacetic acid], `CN(Cc1ccc(OCC(=O)O)c(-c2cc(F)cc(C#N)c2)c1)S(=O)(=O)c1cc(Cl)c(Cl)s1` [Example 192, 2-(3-cyano-5-fluorophenyl)-4-((2,3-dichloro-N-methylthiophene-5-sulfonamido)methyl)phenoxyacetic acid] is 95-fold lower in IC50: 19 nM for the first, 0.2 nM for the second. The second is the more potent here.

Compared with `N#Cc1cc(F)cc(-c2cc(CNS(=O)(=O)c3ccc(F)c(F)c3)ccc2OCC(=O)O)c1` [Example 194, 2-(3-cyano-5-fluorophenyl)-4-((3,4-difluorophenylsulfonamido)methyl)phenoxyacetic acid], `COc1ccc(S(=O)(=O)NCc2ccc(OCC(=O)O)c(-c3cc(F)cc(C#N)c3)c2)cc1F` [Example 196, 2-(3-cyano-5-fluorophenyl)-4-((3-fluoro-4-methoxyphenylsulfonamido)methyl)phenoxyacetic acid] is 21-fold lower in IC50: 15 nM for the first, 0.7 nM for the second. The second is the more potent here.

`COc1ccc(S(=O)(=O)N(C)Cc2cc(-c3cc(F)cc(C#N)c3)c(OCC(=O)O)cc2F)cc1F` [Example 197, 2-(3-cyano-5-fluorophenyl)-(5-fluoro-4-((3-fluoro-4-methoxy-N-methylphenylsulfonamido)methyl)phenoxy)acetic acid] was tested, and the IC50 was 0.6 nM.

same assay, conditions: potency class symbols; Table 2; read-out: CRTH2 hGTPγS IC50

`CN(Cc1ccc(OCC(=O)O)c(-c2ccc(Cl)cc2)c1)S(=O)(=O)c1ccccc1` [Example 179, 2-(4-chlorophenyl)-4-((N-methylphenylsulfonamido)methyl)phenoxyacetic acid] and `CN(Cc1ccc(OCC(=O)O)c(-c2ccc3cc[nH]c3c2)c1)S(=O)(=O)c1ccc(F)cc1` [Example 183, 2-(1H-indol-6-yl)-4-((4-fluoro-N-methylphenylsulfonamido)methyl)phenoxyacetic acid] fall in the same range of IC50: 1000 to 10000 nM for the first, 1000 to 10000 nM for the second.

`CN(Cc1ccc(OCC(=O)O)c(-c2cccc3ncccc23)c1)S(=O)(=O)c1ccc(F)cc1` [Example 180, 2-(quinolin-5-yl)-4-((4-fluoro-N-methylphenylsulfonamido)methyl)phenoxyacetic acid] and `CN(Cc1ccc(OCC(=O)O)c(-c2cccc3cnccc23)c1)S(=O)(=O)c1ccc(F)cc1` [Example 185, 2-(isoquinolin-5-yl)-4-((4-fluoro-N-methylphenylsulfonamido)methyl)phenoxyacetic acid] fall in the same range of IC50: 1000 to 10000 nM for the first, 1000 to 10000 nM for the second.

`CN(Cc1ccc(OCC(=O)O)c(-c2cccc(C(F)(F)F)c2)c1)S(=O)(=O)C1CC1` [Example 181, 2-(3-trifluoromethylphenyl)-4-((N-methylcyclopropanesulfonamido)methyl)phenoxyacetic acid] and `CN(C)S(=O)(=O)N(C)Cc1ccc(OCC(=O)O)c(-c2cccc(C(F)(F)F)c2)c1` [Example 182, 2-(3-trifluoromethylphenyl)-4-((N-methyldimethylaminosulfonamido)methyl)phenoxy acetic acid] fall in the same range of IC50: 1000 to 10000 nM for the first, 1000 to 10000 nM for the second.

First: CN(Cc1ccc(OCC(=O)O)c(-c2ccc3ncn(C)c3c2)c1)S(=O)(=O)c1ccc(F)cc1 [Example 184, 2-(3-methyl-3H-benzo[d]imidazol-5-yl)-4-((4-fluoro-N-methylphenylsulfonamido)methyl)phenoxyacetic acid]
Second: CN(Cc1ccc(OCC(=O)O)c(-c2ccc3nonc3c2)c1)S(=O)(=O)c1ccc(F)cc1 [Example 187, 2-(5-benzo[c][1,2,5]oxadiazolyl)-4-((4-fluoro-N-methylphenylsulfonamido)methyl)phenoxyacetic acid]
The IC50 of the first is higher: 1000 to 10000 nM for the first, under 100 nM for the second. The second is the more potent here.

Compared with `CN(Cc1ccc(OCC(=O)O)c(-c2cnn(C)c2)c1)S(=O)(=O)c1ccc(F)cc1` [Example 186, 2-(1-methyl-1H-pyrazol-4-yl)-4-((4-fluoro-N-methylphenylsulfonamido)methyl)phenoxyacetic acid], `CN(Cc1ccc(OCC(=O)O)c(-c2ccc(C#N)s2)c1)S(=O)(=O)c1ccc(F)cc1` [Example 188, 2-(2-cyanothiophen-5-yl)-4-((4-fluoro-N-methylphenylsulfonamido)methyl)phenoxyacetic acid] is lower in IC50: 1000 to 10000 nM for the first, under 100 nM for the second. The second is the more potent here.

`COc1ccc(S(=O)(=O)N(C)Cc2ccc(OCC(=O)O)c(-c3cc(F)cc(F)c3)c2)cc1F` [Example 189, 2-(3,5-difluorophenyl)-4-((3-fluoro-4-methoxy-N-methylphenylsulfonamido)methyl)phenoxyacetic acid] and `COc1ccc(S(=O)(=O)N(C)Cc2cc(-c3cc(F)cc(C#N)c3)c(OCC(=O)O)cc2F)cc1F` [Example 197, 2-(3-cyano-5-fluorophenyl)-(5-fluoro-4-((3-fluoro-4-methoxy-N-methylphenylsulfonamido)methyl)phenoxy)acetic acid] cannot be ordered by IC50: under 100 nM for the first, under 100 nM for the second.

`CN(Cc1ccc(OCC(=O)O)c(-c2cc(F)cc(C#N)c2)c1)S(=O)(=O)c1cccs1` [Example 190, 2-(3-cyano-5-fluorophenyl)-4-((N-methylthiophene-2-sulfonamido)methyl)phenoxyacetic acid] and `CN(Cc1ccc(OCC(=O)O)c(-c2cc(F)cc(C#N)c2)c1)S(=O)(=O)c1ccc(Cl)s1` [Example 191, 2-(3-cyano-5-fluorophenyl)-4-((2-chloro-N-methylthiophene-5-sulfonamido)methyl)phenoxyacetic acid] cannot be ordered by IC50: under 100 nM for the first, under 100 nM for the second.

`CN(Cc1ccc(OCC(=O)O)c(-c2cc(F)cc(C#N)c2)c1)S(=O)(=O)c1cc(Cl)c(Cl)s1` [Example 192, 2-(3-cyano-5-fluorophenyl)-4-((2,3-dichloro-N-methylthiophene-5-sulfonamido)methyl)phenoxyacetic acid] and `CN(Cc1ccc(OCC(=O)O)c(-c2cc(Cl)cc(C#N)c2)c1)S(=O)(=O)c1ccc(F)cc1` [Example 207, 2-(3-cyano-5-chloro-phenyl)-4-((4-fluoro-N-methylphenylsulfonamido)methyl)phenoxyacetic acid] cannot be ordered by IC50: under 100 nM for the first, under 100 nM for the second.

`N#Cc1cc(F)cc(-c2cc(CNS(=O)(=O)c3ccc(F)c(Cl)c3)ccc2OCC(=O)O)c1` [Example 193, 2-(3-cyano-5-fluorophenyl)-4-((3-chloro-4-fluorophenylsulfonamido)methyl)phenoxyacetic acid] and `N#Cc1cc(F)cc(-c2cc(CNS(=O)(=O)c3ccc(F)c(F)c3)ccc2OCC(=O)O)c1` [Example 194, 2-(3-cyano-5-fluorophenyl)-4-((3,4-difluorophenylsulfonamido)methyl)phenoxyacetic acid] cannot be ordered by IC50: under 100 nM for the first, under 100 nM for the second.

`N#Cc1cc(F)cc(-c2cc(CNS(=O)(=O)c3ccc(F)cc3)ccc2OCC(=O)O)c1` [Example 195, 2-(3-cyano-5-fluorophenyl)-4-((4-fluorophenylsulfonamido)methyl)phenoxyacetic acid] and `COc1ccc(S(=O)(=O)NCc2ccc(OCC(=O)O)c(-c3cc(F)cc(C#N)c3)c2)cc1F` [Example 196, 2-(3-cyano-5-fluorophenyl)-4-((3-fluoro-4-methoxyphenylsulfonamido)methyl)phenoxyacetic acid] cannot be ordered by IC50: under 100 nM for the first, under 100 nM for the second.

`CN(Cc1cc(-c2cc(F)cc(C#N)c2)c(OCC(=O)O)cc1F)S(=O)(=O)c1ccc(F)cc1` [Example 208, 2-(3-cyano-5-fluoro-phenyl)-4-((4-fluoro-N-methylphenylsulfonamido)methyl)-5-fluorophenoxyacetic acid] and `CN(Cc1cc(-c2cc(F)cc(C#N)c2)c(OCC(=O)O)cc1Cl)S(=O)(=O)c1ccc(F)cc1` [Example 213, 2-(3-cyano-5-fluoro-phenyl)-4-((4-fluoro-N-methylphenylsulfonamido)methyl)-5-chlorophenoxyacetic acid] cannot be ordered by IC50: under 100 nM for the first, under 100 nM for the second.

`CN(Cc1cc(-c2cc(F)cc(C#N)c2)c(OCC(=O)O)cc1F)S(=O)(=O)c1ccc(F)c(Cl)c1` [Example 209, 2-(3-cyano-5-fluoro-phenyl)-4-((3-chloro-4-fluoro-N-methylphenylsulfonamido)methyl)-5-fluorophenoxyacetic acid] and `CN(Cc1cc(-c2cc(F)cc(C#N)c2)c(OCC(=O)O)cc1F)S(=O)(=O)c1ccc(Cl)c(Cl)c1` [Example 211, 2-(3-cyano-5-fluoro-phenyl)-4-((3,4-dichloro-N-methylphenylsulfonamido)methyl)-5-fluorophenoxyacetic acid] cannot be ordered by IC50: under 100 nM for the first, under 100 nM for the second.

Compared with `CN(Cc1cc(-c2cc(F)cc(C#N)c2)c(OCC(=O)O)cc1F)S(=O)(=O)c1cccc(Cl)c1` [Example 210, 2-(3-cyano-5-fluoro-phenyl)-4-((3-chloro-N-methylphenylsulfonamido)methyl)-5-fluorophenoxyacetic acid], `CN(Cc1ccc(OCC(=O)O)c(-c2ccc3ccncc3c2)c1)S(=O)(=O)c1ccc(F)cc1` [Example 212, 2-(isoquinolin-7-yl)-4-((4-fluoro-N-methylphenylsulfonamido)methyl)phenoxyacetic acid] is higher in IC50: under 100 nM for the first, 100 to 1000 nM for the second. The first is the more potent here.
